Read-outs that look alike come from different tables or passages of the source.
Experiments:
hyperlipidemia rats [1] = assay: Liver tissue homogenate biochemical indicators in high-fat diet hyperlipidemia rats; assay type: in vivo, SD rats; settings: liver tissue, 20 mg/(kg d) by gastric gavage, 4 weeks, x ± s, n = 9
From the text: (§1) Animals: 54 SPF-grade SD rats, weighing 120±10 g, provided by Laboratory Animal Business Department, Shanghai Family Planning Research Institute, China, Animal license number: SCXK(Shanghai)2018-0006.
(§2) Drug to be tested: Nuciferine purchased from Shanghai Aladdin Biochemical Technology Co., Ltd., China, and its derivatives (purity >99%) that were synthesized in the laboratory by the methods of Examples 2-7.
(§3) Other reagents: AST, ALT, TC, TG, NEFA, Bun, Cr, CAT, GSH-Px, GSH, MDA test kits, purchased from Nanjing Jiancheng Bioengineering Institute, China; HL and PL test kits, purchased from Jianglai Biotechnology Co., Ltd., China; experimental reagents such as anhydrous ethanol, xylene, isopropanol neutral gum, purchased from Sinopharm Chemical Reagent Co., Ltd., China; HE dye solution, DAB color development agent, and oil red O dye solution, purchased from KeyGEN Biotechnology Co., Ltd, China; Antibodies IL-6 and TNF-α, purchased from Abcam Limited.
(§4) Modeling scheme: 54 adult rats of 120±10 g were selected and fed adaptively for three days. They were then randomly divided to 6 groups, 9 animals for each group. They were blank control group, model group, positive control group, nuciferine group, and nuciferine structural modification group. The blank control group was fed with normal diet. […] The feeding and modeling time was 5 weeks. Within 4 weeks after modeling, continuous administration was performed: the blank control group and model group were given 0.2 mL of distilled water by gastric gavage; the positive control group was administrated 20 mg/(kg d) of simvastatin; while the treatment group was administrated 20 mg/(kg d) of nuciferine or 20 mg/(kg d) of a derivative of nuciferine (compounds 6a-6f).
(§5) Liver tissue sample collection: the rats were killed by dislocation, and the liver was taken out immediately after death, which was observed by naked eye to find out whether there was abnormal color and lesions, and was then rinsed with ice normal saline. The left lobe of the liver was quickly cut into small pieces and fixed in 10% formaldehyde overnight for sectioning. The tissue of the right lobe of the liver was quickly wrapped in tin box and stored at −80° C. for later use.
Preparation of 10% liver homogenate: the liver wrapped in tin box and stored in the ultra-low temperature freezer at −80° C. was taken out, and quickly placed on an ice box. 0.2 g of liver tissue was accurately taken, and ice normal saline with a volume 9 times that of the liver issue was added thereto. 10% tissue homogenate was formed by grounding and mixing, and then centrifuged at 3000 r/min and 4° C. for 10 min. The supernatant was collected for later use.
(§6) Biochemical indicator determination: indicators AST, ALT, TC, TG, NEFA, Bun, Cr, CAT, GSH-Px, GSH, MDA, HL, PL were determined according to the instructions of the kits.

hyperlipidemia rats [2] = assay: Serum biochemical indicators in high-fat diet hyperlipidemia rats; assay type: in vivo, SD rats; settings: serum, 20 mg/(kg d) by gastric gavage, 4 weeks; for ALT (U/L) / AST (U/L) / Bun / Cr: x ± s, n = 9
From the text: as §1, §2, §3, §4
Blood sample collection: 24 h after the last gastric gavage administration, eyeballs were taken out and blood was drawn. Whole blood was collected in an EP tube, and centrifuged at 3000 r/min and 4° C. for 10 min, and the supernatant was collected and stored at −20° C. for blood biochemical indicator test.
as §6

hyperlipidemia rats [3] = assay: Liver and kidney indexes in high-fat diet hyperlipidemia rats; assay type: in vivo, SD rats; settings: 20 mg/(kg d) by gastric gavage, 4 weeks, x ± s, n = 9
From the text: as §1
(§7) Modeling scheme: 54 adult rats of 120±10 g were selected and fed adaptively for three days. They were then randomly divided to 6 groups, 9 animals for each group. They were blank control group, model group, positive control group, nuciferine group, and nuciferine structural modification group. The blank control group was fed with normal diet. […] The feeding and modeling time was 5 weeks.
as §5

hyperlipidemia rats [4] = assay: Liver appearance and HE histopathological observation in hyperlipidemia rats; assay type: in vivo, SD rats; settings: compared with the model group, 20 mg/(kg d)
From the text: as §1, §7, §5

[5] = cited from earlier work
[6] = TCMSP database, screening threshold OB ≥30%

## COc1cc2c3c(c1OC)-c1ccccc1CC3N(C(=O)c1ccccc1C)CC2 (stereo not shown) [Compound 6d, o-Methylbenzoylnuciferine]
Hyperlipidemia rats [1]
  CAT (U/mgprot): 25.78 ± 2.67 U/mgprot
  GSH (μmol/gprot): 360.02 ± 43.63 μmol/gprot
  GSH-Px (U/mgprot): 562.93 ± 68.91 U/mgprot
  HL (U/mgprot): 0.37 ± 0.08 U/mgprot
  LPL (U/mgprot): 0.42 ± 0.06 U/mgprot
  MDA (nmol/mgprot): 0.95 ± 0.48 nmol/mgprot
  NEFA (μmol/g prot): 106.32 ± 22.95 μmol/g prot
  TG (mmol/g prot): 0.13 ± 0.02 mmol/g prot
Hyperlipidemia rats [2]
  LDL-C: 0.68 ± 0.15 mmol/L
  TC: 2.03 ± 0.09 mmol/L
  TG: 0.57 ± 0.07 mmol/L
  ALT (U/L): 15.62 ± 9.43 U/L
  AST (U/L): 7.78 ± 2.27 U/L
  Bun: 3.56 ± 0.19 mmol/L
  Cr: 53.82 ± 6.13 µmol/L
Hyperlipidemia rats [3]
  Kidney index (%): 0.68 ± 0.04 %
  Liver index (%): 4.58 ± 0.24 %

## COc1ccc(C(=O)N2CCc3cc(OC)c(OC)c4c3C2Cc2ccccc2-4)cc1 (stereo not shown) [Compound 6e, p-Methoxybenzoylnuciferine]
Hyperlipidemia rats [1]
  CAT (U/mgprot): 26.34 ± 4.54 U/mgprot
  GSH (μmol/gprot): 363.09 ± 71.72 μmol/gprot
  GSH-Px (U/mgprot): 537.18 ± 34.93 U/mgprot
  HL (U/mgprot): 0.37 ± 0.07 U/mgprot
  LPL (U/mgprot): 0.28 ± 0.04 U/mgprot
  MDA (nmol/mgprot): 1.02 ± 0.73 nmol/mgprot
  NEFA (μmol/g prot): 107.69 ± 6.44 μmol/g prot
  TG (mmol/g prot): 0.10 ± 0.02 mmol/g prot
Hyperlipidemia rats [2]
  LDL-C: 0.56 ± 0.08 mmol/L
  TC: 1.95 ± 0.13 mmol/L
  TG: 0.55 ± 0.05 mmol/L
  ALT (U/L): 15.54 ± 8.69 U/L
  AST (U/L): 7.65 ± 2.26 U/L
  Bun: 3.43 ± 0.27 mmol/L
  Cr: 52.90 ± 2.21 µmol/L
Hyperlipidemia rats [3]
  Kidney index (%): 0.68 ± 0.05 %
  Liver index (%): 4.58 ± 0.27 %

## COc1cc2c3c(c1OC)-c1ccccc1CC3N(C(=O)c1ccccc1)CC2 (stereo not shown) [Compound 6a, Benzoylnuciferine]
Hyperlipidemia rats [1]
  CAT (U/mgprot): 26.06 ± 2.69 U/mgprot
  GSH (μmol/gprot): 360.02 ± 43.63 μmol/gprot
  GSH-Px (U/mgprot): 550.96 ± 60.97 U/mgprot
  HL (U/mgprot): 0.35 ± 0.03 U/mgprot
  LPL (U/mgprot): 0.27 ± 0.03 U/mgprot
  MDA (nmol/mgprot): 0.94 ± 0.27 nmol/mgprot
  NEFA (μmol/g prot): 107.69 ± 6.44 μmol/g prot
  TG (mmol/g prot): 0.10 ± 0.02 mmol/g prot
Hyperlipidemia rats [2]
  LDL-C: 0.54 ± 0.09 mmol/L
  TC: 1.94 ± 0.18 mmol/L
  TG: 0.56 ± 0.05 mmol/L
  ALT (U/L): 15.46 ± 8.79 U/L
  AST (U/L): 7.85 ± 2.23 U/L
  Bun: 3.16 ± 0.17 mmol/L
  Cr: 51.82 ± 7.06 µmol/L
Hyperlipidemia rats [4]
  Liver appearance (photographs, FIG. 8): more brittle
Hyperlipidemia rats [3]
  Kidney index (%): 0.68 ± 0.04 %
  Liver index (%): 4.58 ± 0.29 %

## CC(C)=CCC[C@@H](C)[C@H]1CC[C@@]2(C)[C@@H]3CC[C@H]4C(C)(C)[C@@H](O)CC[C@@]45C[C@@]35CC[C@]12C [Cycloartenol]
[5]; [6]
  OB/% (oral bioavailability): 38.69%

## CN1CCc2cc(O)c(O)cc2[C@@H]1Cc1ccc(O)cc1 [(1S)-1-(4-hydroxybenzyl)-2-methyl-3,4-dihydro-1H-isoquinoline-6,7-diol]
[5]; [6]
  OB/% (oral bioavailability): 67.14%

## (−)-catechin
[5]; po
  OB/% (oral bioavailability): 49.68%

## CCC(C)(C)C(=O)O[C@H]1C[C@@H](C)C=C2C=C[C@H](C)[C@H](CC[C@@H]3C[C@@H](O)CC(=O)O3)[C@H]21 [Simvastatin, simvastatin, reference compound]
Hyperlipidemia rats [1]
  CAT (U/mgprot): 29.35 ± 7.00 U/mgprot
  GSH (μmol/gprot): 341.36 ± 98.66 μmol/gprot
  GSH-Px (U/mgprot): 708.02 ± 47.00 U/mgprot
  HL (U/mgprot): 0.45 ± 0.11 U/mgprot
  LPL (U/mgprot): 0.50 ± 0.06 U/mgprot
  MDA (nmol/mgprot): 0.84 ± 0.19 nmol/mgprot
  NEFA (μmol/g prot): 103.22 ± 8.89 μmol/g prot
  TG (mmol/g prot): 0.09 ± 0.01 mmol/g prot
Hyperlipidemia rats [2]
  LDL-C: 0.62 ± 0.17 mmol/L
  TC: 2.00 ± 0.19 mmol/L
  TG: 0.47 ± 0.05 mmol/L
  ALT (U/L): 13.74 ± 4.06 U/L
  AST (U/L): 7.57 ± 1.78 U/L
  Bun: 3.98 ± 0.43 mmol/L
  Cr: 53.79 ± 7.58 µmol/L
Hyperlipidemia rats [3]
  Kidney index (%): 0.68 ± 0.03 %
  Liver index (%): 4.47 ± 0.36 %

## Oc1cc(O)c2c(c1)OC(c1ccc(O)c(O)c1)C(O)C2O (single isomer, unassigned; (+)) [(+)-Leucocyanidin]
[5]; [6]
  OB/% (oral bioavailability): 37.61%
